Laboratory results: US10851075B2, “Stat3 pathway inhibitors and cancer stem cell inhibitors” (Sumitomo Dainippon Pharma Oncology, Inc., priority 2007, dated 2020)
Read-outs that look alike come from different tables or passages of the source.

How the values were obtained:
[1] = tested on: DU145 cells; assay: MTT cell viability, DU145; type: cell-based; conditions: Homo sapiens, DU-145, MTT at 24 hours
Source text: (§1) Cell Culture: HeLa, DU145, H1299, DLD1, SW480, A549, MCF7, LN18, HCT116, HepG2, Paca2, Panel, LNcap, FaDu, HT29, and PC3 cells (ATCC, Manassas, Va.) were maintained in Dulbecco's Modified Eagle Medium (DMEM) (Invitrogen, Carlsbad, Calif.) supplemented with 10% fetal bovine serum (MS) (Gemini Bio-Products, West Sacramento, Calif.) and 5% penicillin/streptomycin/amphotercin B (Invitrogen).
(§2) Cell Viability Determination: For 3-(4,5 dimethylthiazol-2-yl)-2,5-diphenyltetrazolium (MTT) (Sigma-Aldrich, St. Louis, Mo.) analysis, cells were plated in 96 well plates at 10,000 cells per well. 24 hours after plating, compound was added to cells at indicated doses. 22 hours following compound addition, MTT was added to each well (0.5 mg/ml, final concentration) and plates were incubated for an additional 2 hours at 37° C., Medium was then aspirated and the formazan product was solubilized in 100 μl of isopropyl alcohol. The absorbance of each well was measured at 570 nm using a microplate reader.
(§3) Identification of compounds that are apoptotic to a broad spectrum of cancer cells in vitro. Cells plated in 96 well plates and treated with indicated compounds were subjected to MTT analysis at 24 hours following compound treatment to determine cell viability.

[2] = tested on: H1299 cells; assay: MTT cell viability, H1299; type: cell-based; conditions: Homo sapiens, NCI-H1299, MTT at 24 hours
Source text: as §1, §2, §3

[3] = tested on: HeLa cells; assay: MTT cell viability, HeLa; type: cell-based; conditions: Homo sapiens, MTT at 24 hours
Source text: as §1, §2, §3

[4] = tested on: Stat3 transcription activity; assay: Stat3-luciferase (Stat3-Luc) reporter assay in HeLa cells, OSM stimulated; type: cell-based; conditions: Homo sapiens, compound 30 minutes before 25 ng/ml oncostatin M, 6 hours, read-out: IC50 in Stat3-Luc assays
Description: Luciferase Reporter Assay: HeLa Cells were co-transfected with Stat3-luciferase (Stat3-Luc) reporter vector (Panomics, Fremont, Calif.) and Renilla luciferase (Promega, Madison, Wis.) using Lipofectamine 2000 as described by the manufacturer (Invitrogen). Following transfection, cells were maintained in medium containing 0.5% FBS for 24 hours. Cells were then treated with the indicated compound for 30 minutes prior to the addition of 25 ng/ml oncostatin M (OSM) (R&D Systems, Minneapolis, Minn.) to the medium. 6 hours following OSM addition, cells were harvested and levels of firefly and renilla luciferase were measured using the Dual-Glo Luciferase Assay System as described by the manufacturer (Promega).
Inhibition of Stat3 transcription activity. Compounds were tested for their ability to inhibit Stat3 transcription activation activity in cells using a Stat3-luciferase (Stat3-luc) reporter construct. Cells transfected with Stat3-luc were cultured in reduced serum medium prior to addition of indicated compound for 30 minutes. Cells were then stimulated with 25 ng/ml oncostatin (OSM) for 6 hours followed by detection of Stat3-luc reporter activity.

[5] = tested on: PC3 cells; assay: MTT cell viability, PC3; type: cell-based; conditions: Homo sapiens, PC-3; PC3, Prostate; MTT at 24 hours; Table 3
Source text: as §1, §2, §3

[6] = tested on: A549 cells; assay: MTT cell viability, A549; type: cell-based; conditions: Homo sapiens; A549, Lung; MTT at 24 hours following compound treatment; Table 3
Source text: as §1, §2, §3

[7] = target: T1, Stat3 DNA-binding activity (Homo sapiens, UniProt P40763); assay: Stat3 DNA binding assay (EMSA), HeLa nuclear extract; type: biochemical; conditions: HeLa nuclear extract, FIG. 6A/6B
T1 construct: endogenous in cells; host or cells: HeLa cells (nuclear extract)
T1 sequence (P40763 whole entry): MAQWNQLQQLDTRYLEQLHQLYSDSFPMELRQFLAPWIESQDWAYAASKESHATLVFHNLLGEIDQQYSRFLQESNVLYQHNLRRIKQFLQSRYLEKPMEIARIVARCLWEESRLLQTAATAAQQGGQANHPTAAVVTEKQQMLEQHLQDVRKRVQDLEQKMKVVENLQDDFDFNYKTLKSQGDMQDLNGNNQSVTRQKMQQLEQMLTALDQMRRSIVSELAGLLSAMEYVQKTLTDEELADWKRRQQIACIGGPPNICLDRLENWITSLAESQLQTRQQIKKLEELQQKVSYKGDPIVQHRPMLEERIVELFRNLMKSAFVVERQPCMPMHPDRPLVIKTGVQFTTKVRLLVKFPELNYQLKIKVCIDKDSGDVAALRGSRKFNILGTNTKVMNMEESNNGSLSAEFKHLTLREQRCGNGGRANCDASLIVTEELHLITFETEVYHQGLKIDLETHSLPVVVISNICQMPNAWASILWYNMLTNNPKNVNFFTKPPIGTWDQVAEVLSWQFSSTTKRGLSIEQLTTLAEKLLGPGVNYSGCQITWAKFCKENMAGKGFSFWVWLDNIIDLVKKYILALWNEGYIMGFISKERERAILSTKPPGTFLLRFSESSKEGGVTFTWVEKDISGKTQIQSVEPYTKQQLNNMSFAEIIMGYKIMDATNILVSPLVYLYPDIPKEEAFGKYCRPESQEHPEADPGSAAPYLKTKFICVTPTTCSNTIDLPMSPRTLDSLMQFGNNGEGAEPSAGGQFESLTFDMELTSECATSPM
Description: STAT3 DNA Binding Assay: Electrophoretic mobility shift assay (EMSA) was performed as described by the manufacturer (Li-Cor Biosciences, Lincoln, Nebr.). Briefly, nuclear extracts were made from HeLa cells using the NucBuster Protein Extraction Kit as described by the manufacturer (EMD Biosciences, San Diego, Calif.). 5 μg of nuclear extract was pre-incubated with the indicated dose of indicated compound for 30 minutes prior to a 15-minute incubation with the IR700-labeled consensus Stat3 oligonucleotide. Samples were then electrophoresed on a polyacrylamide gel and directly scanned using the Odyssey infrared imaging system (Li-Cor Biosciences). For the enzyme-linked immunosorbent assay (ELISA), 5 μg of nuclear extract was preincubated with indicated concentration of indicated compound for 30 minutes prior to the addition of biotinylated oligo (5′-Biotin-[…]-3′). Stat3-DNA complexes were then captured on streptavidin coated 96 well plates (Pierce, Rockford, Ill.). Bound complexes were then incubated with Stat3 polyclonal antibody (Santa Cruz Biotechnology, Santa Cruz, Calif.) followed by anti-rabbit HRP conjugated secondary antibody (GE Healthcare, Pittsburgh, Pa.). Bound antibody was then visualized by addition of TMB substrate (Pierce) and absorbance measured at 450 nm.
Inhibition of Stat3 DNA-binding activity. Nuclear extracts from HeLa cells, which contain constitutively activated Stat3 as detected by phoshporylation at the tyrosine 705 residue, were used to perform Stat3 EMSAs to monitor Stat3 DNA binding activity. Nuclear extracts were incubated with indicated compound prior to incubation with IR700-labeled Stat3 consensus oligonucleotide. Binding of Stat3 to the oligonucleotide was monitored by gel electrophoresis and detection using a LiCor Odyssey infrared scanner.
To calculate the inhibition %, the density of the untreated Stat3 retarded band (control) was set as 100 and the inhibition % was the difference between the control and the relative DNA binding activity of the drug-treated samples.

[8] = tested on: MCF7 cells; assay: MTT cell viability, MCF7; type: cell-based; conditions: Homo sapiens; MCF7, Breast; MTT at 24 hours; Table 3
Source text: as §1, §2, §3

[9] = tested on: HT29 cells; assay: MTT cell viability, HT29; type: cell-based; conditions: Homo sapiens, HT-29; HT29, Colon; MTT at 24 hours; Table 3
Source text: as §1, §2, §3

[10] = tested on: Paca2 cells; assay: MTT cell viability, Paca2; type: cell-based; conditions: PaCa-2; Paca2, Pancreas; MTT at 24 hours; Table 3
Source text: as §1, §2, §3

[11] = tested on: Panc1 cells; assay: MTT cell viability, Panc1; type: cell-based; conditions: Homo sapiens, PANC-1; Panc1, Pancreas; MTT at 24 hours; Table 3
Source text: as §1, §2, §3

[12] = tested on: DLD1 cells; assay: MTT cell viability, DLD1; type: cell-based; conditions: Homo sapiens, DLD-1; DLD1, Colon; MTT at 24 hours; Table 3
Source text: as §1, §2, §3

[13] = tested on: HCT116 cells; assay: MTT cell viability, HCT116; type: cell-based; conditions: Homo sapiens, HCT-116; HCT116, Colon; MTT at 24 hours; Table 3
Source text: as §1, §2, §3

[14] = tested on: SW480 cells; assay: MTT cell viability, SW480; type: cell-based; conditions: Homo sapiens; SW480, Colon; MTT at 24 hours; Table 3
Source text: as §1, §2, §3

[15] = DU145, Table 4, read-out: IC50 (μM) DU145
[16] = H1299, Table 4, read-out: IC50 (μM) H1299
[17] = Hela, Table 4, read-out: IC50 (μM) Hela

Row | SMILES | IC50 [1, 15] [µM] | IC50 [2, 16] [µM] | IC50 [3, 17] [µM] | IC50 [4] [µM] | other results
1 | O=C(O)c1cc2c(o1)C(=O)c1ccccc1C2=O [Compound 405] | 1.41 | – | – | – | –
2 | COc1ccc(C(=O)c2cc3c(s2)C(=O)c2ccccc2C3=O)cc1OC [Compound 410] | 0.239 | 1.88 | 2.52 | ~1 | –
3 | COc1ccc(C(=O)c2cc3c(o2)C(=O)c2ccccc2C3=O)cc1OC [Compound 413] | 0.721 | 1.9 | 4.38 | – | –
4 | O=C(c1cccc(Cl)c1)c1cc2c(o1)C(=O)c1ccccc1C2=O [Compound 417] | 0.768 | – | – | – | –
5 | O=C(c1ccccc1)c1cc2c(o1)C(=O)c1cc(F)ccc1C2=O [Compound 419] | 1.82 | – | – | – | –

More lines, in order of falling IC50 [1, 15], values ahead:

Row | IC50 [1, 15] [µM] | IC50 [2, 16] [µM] | IC50 [3, 17] [µM] | IC50 [4] [µM] | SMILES | other results
6 | 14.1 | 11.3 | 13 | – | O=Cc1cc2c(o1)C(=O)c1ccccc1C2=O [Compound 414] | –
7 | 9.8 | 6.5 | 10.5 | – | O=C(c1ccccc1)c1cc2c(o1)C(=O)c1cc(Br)ccc1C2=O [Compound 415] | –
8 | 2.1 | 4.11 | 3.78 | ~5 | COc1ccc(C(=O)c2cc3c(s2)C(=O)c2ccccc2C3=O)cc1 [Compound 407] | –
9 | 0.616 | 14.1 | 14.7 | – | O=C(c1ccc(O)c(O)c1)c1cc2c(s1)C(=O)c1ccccc1C2=O [Compound 411] | –
10 | 0.554 | 3.62 | 4.47 | ~2 | O=C(c1ccc(O)cc1)c1cc2c(s1)C(=O)c1ccccc1C2=O [Compound 408] | –
11 | 0.442 | 1.03 | 1.88 | ~2 | CC(=O)c1cc2c(s1)C(=O)c1ccccc1C2=O [Compound 409] | –
12 | 0.211 | 0.337 | 0.711 | – | CC(=O)c1cc2c(o1)C(=O)c1cc(Cl)ccc1C2=O [Compound 416] | IC50 [5]: 3.1 µM; IC50 ([2]; H1299, Lung, Table 3, read-out: IC50): 0.25 µM; IC50 [6]: 1.9 µM; inhibition of Stat3 DNA binding (in words) [7]: inhibits Stat3 DNA-binding activity; IC50 [8]: 0.75 µM; IC50 ([3]; HeLa, Cervix, Table 3, read-out: IC50): 0.62 µM; IC50 [9]: 1.91 µM; IC50 ([1]; DU145, Prostate, Table 3, read-out: IC50): 0.22 µM; IC50 [10]: 0.21 µM; IC50 [11]: 2.59 µM; IC50 [12]: 0.54 µM; IC50 [13]: 0.69 µM; IC50 [14]: 0.44 µM
